Patent US20130244255A1, “ANTIBODIES DIRECTED TO GPNMB AND USES THEREOF” (priority 2006, published 2013)

Assays:
A2058 = assay: Clonogenic assay with 1.15.1-AE; assay type: cell-based, human
Method: Melanoma cell lines were plated onto flat bottom 96-well tissue culture plates (Becton Dickinson, Franklin Lakes, N.J., USA). On day 2 or when cells reach ˜25% confluency, various concentrations of unconjugated and Auristatin E-conjugated 1.15.1 were added to cells. MAb 2.6.2-AE was also used as a conjugated isotype control in this study. On day 5, the cells were trypsinized, transferred to 6-well tissue culture plates and incubated at 37° C. Plates were examined daily. On days 8-10, all plates were Giemsa stained and colonies on the plates were counted.

CCRF-CEM = assay: Clonogenic assay (methylcellulose) with 1.15.1-AE; assay type: cell-based, human
Method: (§1) Lymphoma or leukemia cell lines were mixed with methylcellulose base media (R&D Systems, USA) and in various concentrations of unconjugated and Auristatin E-conjugated 1.15.1 antibody before plating onto 6-well tissue culture plates (Becton Dickinson, Franklin Lakes, N.J., USA). […] Plates were incubated at 37° C. and examined daily. On days 14-18, colonies on the plates were counted.

DEL = assay: Clonogenic assay (methylcellulose) with 1.15.1-AE; assay type: cell-based, human
Method: as §1

Jurkat = assay: Clonogenic assay (methylcellulose) with 1.15.1-AE; assay type: cell-based, human
Method: as §1

KG-1 = assay: Clonogenic assay (methylcellulose) with 1.15.1-AE; assay type: cell-based, human
Method: as §1

Karpas 299 = assay: Clonogenic assay (methylcellulose) with 1.15.1-AE; assay type: cell-based, human
Method: as §1

MOLT-4 = assay: Clonogenic assay (methylcellulose) with 1.15.1-AE; assay type: cell-based, human
Method: as §1

PL-21 = assay: Clonogenic assay (methylcellulose) with 1.15.1-AE; assay type: cell-based, human
Method: as §1

SU-DHL-1 = assay: Clonogenic assay (methylcellulose) with 1.15.1-AE; assay type: cell-based, human
Method: as §1

SUP-M2 = assay: Clonogenic assay (methylcellulose) with 1.15.1-AE; assay type: cell-based, human
Method: as §1

SNB-78 = assay: Clonogenic assay with CR011-vcMMAE; assay type: cell-based, human
Method: (§2) Cells were plated in 96-well plates and allowed to recover overnight. […] The cells were then transferred into 6-well plates and allowed to form colonies. Colonies were stained with Giemsa stain (Sigma) and counted. The surviving cell fractions were calculated based upon the ratio of the treated sample and the untreated control. The results were expressed as a percentage of control using GraphPad Prism Version 4 software.

XF-498 = assay: Clonogenic assay with CR011-vcMMAE; assay type: cell-based, human
Method: as §2

human interleukin-8 = assay: Plasma human IL-8 (ELISA) in SK-MEL-2 xenograft-bearing athymic mice; assay type: in vivo
Method: Interleukin-8 (IL-8) was measured by an enzyme-linked immunosorbent assay using a commercial kit (Human CXCL8/IL-8 Quantikine ELISA Kit, 3rd Generation; R&D Systems, Minneapolis, Minn.), which recognizes human, but not mouse, IL-8. Assays were conducted according to the manufacturer's instructions in which the IL-8 was detected by binding to IL-8 specific mAb pre-coated onto 96-well microliter plate. Standards and samples were pipetted into the wells and human IL-8 was bound by the immobilized antibody. After washing away the unbound substances, horseradish peroxidase-conjugated IL-8 specific polyclonal antibody was added to the wells. Following a wash, substrate solution was added and color developed; the plate was read on an ELISA plate reader. Results were calculated from a standard curve, generated by a four-parameter logistic curve fit, and expressed in picograms per milliliter. The lower limit of quantitation of the assay was 3.5 pg/mL and for each timepoint, n=3 mice. No human IL-8 could be detected in the blood of normal (non-tumor-bearing) athymic mice.
Plasma concentrations of human IL-8 were measured by the species-specific ELISA assay described in Materials and Methods. At the beginning of treatment (day 16), the human IL-8 level in plasma was 29.8 pg/ml. […] At day 30 (14 days after treatment), plasma IL-8 level was not detected and remained undetectable for the duration of the experiment (FIG. 26).

CG56972 = target: T1, CG56972 (Homo sapiens, UniProt Q14956); assay: Flow cytometry of CR011 binding to cell surface CG56972/GPNMB (GMR)
T1 construct: endogenous in cells; host or cells: SK-MEL-2, XF-498, U-118-MG, SNB-78, SF-539, SF-268 and further human lines (ATCC / NCI)
T1 sequence (Q14956 23-572): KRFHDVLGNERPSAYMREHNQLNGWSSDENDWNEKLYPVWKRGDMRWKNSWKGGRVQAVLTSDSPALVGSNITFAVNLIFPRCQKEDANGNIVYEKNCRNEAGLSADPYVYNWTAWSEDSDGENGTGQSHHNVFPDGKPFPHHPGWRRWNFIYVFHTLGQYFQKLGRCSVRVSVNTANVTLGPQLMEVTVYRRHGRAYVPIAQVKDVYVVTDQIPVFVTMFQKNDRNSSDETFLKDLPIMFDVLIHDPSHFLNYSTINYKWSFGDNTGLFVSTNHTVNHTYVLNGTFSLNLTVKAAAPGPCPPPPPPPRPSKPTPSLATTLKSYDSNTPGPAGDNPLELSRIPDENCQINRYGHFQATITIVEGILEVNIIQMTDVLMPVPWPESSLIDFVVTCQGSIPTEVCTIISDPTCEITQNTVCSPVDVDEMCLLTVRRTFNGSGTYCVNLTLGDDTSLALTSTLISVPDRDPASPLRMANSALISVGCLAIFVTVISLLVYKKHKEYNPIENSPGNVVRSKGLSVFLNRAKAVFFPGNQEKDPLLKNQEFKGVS
Method: Quantitative analysis of GPNMB expression on the cell surface of cell lines was determined by flow cytometry. […] Cells were fixed in 1% paraformaldehyde/PBS and examined on a Becton Dickinson FACSCalibur flow cytometer. Data analysis was performed with Becton Dickinson Cell Quest software version 3.3 and the geometric mean fluorescence intensity ratio (GMR) was determined for each cell type.
Quantitative analysis of CG56972 expression on the surface of cell lines was determined by flow cytometry (FACS). […] Cells were fixed in 1% paraformaldehyde/PBS and examined on a Becton Dickinson FACSCalibur flow cytometer. Data analysis was performed with Becton Dickinson Cell Quest software version 3.3 and the geometric mean fluorescence intensity ratio (GMR) was determined for each cell type.

[1] = test system: CG56972-expressing cancer cell lines; assay: Growth of CG56972-expressing cells with naked CR011; assay type: cell-based, human; conditions: used directly, unconjugated
[2] = test system: CG56972-expressing cancer cells; assay: Growth inhibition by CR011 with saporin-conjugated secondary antibody; assay type: cell-based, human; conditions: data not shown

**Q.** How did the “Clonogenic Assay with 1.15.1-AE IC50 in ng/mL” value (shortened to “Clonogenic Assay”) (A2058) turn out when “CR011-vcMMAE: CR011 conjugated to monomethyl auristatin E through a protease cleavable valine-citrulline linker; approx. 4 drugs per antibody” was run?
**A.** Its value is “No effect”.

**Q.** What about the “Clonogenic Assay” value (CCRF-CEM) of the same substance?
**A.** Its value is “No growth”.

**Q.** And the “Clonogenic Assay” value (DEL)?
**A.** The value was “No effect”.

**Q.** What about the “Clonogenic Assay” value (Jurkat) of the same substance?
**A.** Its value is “No effect (repeating)”.

**Q.** What about the “Clonogenic Assay” value (KG-1) of the same substance?
**A.** The value was “No growth”.

**Q.** What about the “Clonogenic Assay” value (Karpas 299) of the same substance?
**A.** Its value is “Inconclusive”.

**Q.** What about the “Clonogenic Assay” value (MOLT-4) of the same substance?
**A.** The value was “No effect (repeating)”.

**Q.** What about the “Clonogenic Assay” value (PL-21) of the same substance?
**A.** The value was “No effect”.

**Q.** What about the “Clonogenic Assay” value (SU-DHL-1) of the same substance?
**A.** Its value is “No effect”.

**Q.** What about the “Clonogenic Assay” value (SUP-M2) of the same substance?
**A.** Its value is “No growth”.

**Q.** And the IC50 (SNB-78)?
**A.** The IC50 was about 0.45 µg/mL.

**Q.** What about the IC50 (XF-498) of the same substance?
**A.** Its IC50 is “approximately 215 ng/mL”.

**Q.** What about the “plasma IL-8 level” value (human interleukin-8; 1 mg/kg single bolus, day 17.5 (1.5 days after treatment)) of the same substance?
**A.** The value was 46.3 pg/mL.

**Q.** What about the “plasma IL-8 level” value (human interleukin-8; 1 mg/kg single bolus, day 58 (42 days after treatment)) of the same substance?
**A.** Its value is 414.63 pg/mL.

**Q.** And the “plasma IL-8 level” value (human interleukin-8; 10 mg/kg single bolus, day 17.5 (1.5 days after treatment))?
**A.** The value was 52.85 pg/mL.

**Q.** And the “plasma IL-8 level” value (human interleukin-8; 10 mg/kg single bolus, day 23 (7 days after treatment))?
**A.** The value was 24.39 pg/mL.

**Q.** And the “plasma IL-8 level” value (human interleukin-8; 10 mg/kg single bolus, day 30 (14 days after treatment) and after, lower limit of quantitation 3.5 pg/mL)?
**A.** The value was “not detected”.

**Q.** How did the “surface staining above control mAb background” value (CG56972; SF-268, CR011 10 μg/mL) turn out when “CR011: fully human monoclonal antibody that specifically binds to GPNMB; VH SEQ ID NO: 20, VL SEQ ID NO: 29” was run?
**A.** The value was “around 1.5 fold”.

**Q.** What about the “surface staining above isotype control mAb background” value (CG56972; SF-539, CR011 10 μg/mL) of the same substance?
**A.** The value was “at least 1.5 fold”.

**Q.** And the “cell surface staining (in words)” value (CG56972; SK-MEL-2)?
**A.** Its value is “strong cell surface staining”.

**Q.** What about the “surface staining above isotype control mAb background” value (CG56972; SNB-78, CR011 10 μg/mL) of the same substance?
**A.** The value was “at least 1.5 fold”.

**Q.** And the “surface staining above isotype control mAb background” value (CG56972; U-118-MG, CR011 10 μg/mL)?
**A.** The value was “at least 1.5 fold”.

**Q.** And the “surface staining above isotype control mAb background” value (CG56972; XF-498, CR011 10 μg/mL)?
**A.** The value was “at least 1.5 fold”.

**Q.** What about the “effect of naked antibody on CG56972 expressing cells (in words)” value [1] of the same substance?
**A.** Its value is “did not inhibit the growth”.

**Q.** What about the “effect of naked antibody on CG56972 expressing cells (in words)” value ([1]; listed as CR011 IgG2 mAb) of the same substance?
**A.** The value was “no effect”.

**Q.** And the “growth inhibition with saporin-conjugated secondary antibody (in words)” value [2]?
**A.** Its value is “could specifically inhibit the growth”.
